Results published in patent US11022604B2, “Dock derived compound against laminin receptor (37 LR) and uses thereof” (Purdue Research Foundation, priority 2017, dated 2021).

Tested on: PC-3 cells
Assay: Wound healing (scratch) assay
Type: cell-based
Settings: PC3, 50 uM, 48 h
Experimental: PC-3 cells were treated with 1, 10, 50 μM C3 or DMSO control after scratch formation and images were recorded using a brightfield microscope as described in the methods. […] Brightfield images were quantified using the t-scratch program and represented as % scratch closure after 48 hours of migration compared to a 0 hour control (n=9, mean±SEM). A one-way ANOVA test was used for statistical analysis (p<0.05).
Wound Healing Assay. PC-3 cells were seeded in 6 well plates at 3×10^5 cells per well in complete media until the cells reached confluency. Three horizontal and three vertical scratches were made in the confluent monolayers using a standard 200 μL pipette tip and cellular debris were removed by washing with 1×DPBS three times. 1×RPMI-1640 supplemented with C3 or DMSO was added and cells were incubated for 48 hours as described previously. […] Images were uploaded and analyzed for scratch geometry using the tscratch program (96). First, global thresholding was performed, then individual images were manually inspected for single image threshold adjustment and scratch geometries were quantified. […] The samples were analyzed using the Dionex UltiMate 3000 RSLC Nano System coupled to the Q Exactive™ HF Hybrid Quadrupole-Orbitrap MS (Thermo Scientific). […] Label free quantitation (LFQ) was performed using a minimum ratio count of 2 with fast LFQ. […]

O=C(c1cc(F)cc2c1OCOC2)N1CCN(C2c3ccccc3-c3ccccc32)CC1 [Compound C3, [4-(9h-fluoren-9-yl)piperazino](6-fluoro-4h-1,3-benzodioxin-8-yl)methanone]
prevention of wound closure: ~70%
